Data on twelve compounds can be found in patent US20250114374A1, “BCL-2 INHIBITORS” (Newave Pharmaceutical Inc., priority 2021, published 2025).

Counter-ions that a name gives are not always drawn.

One assay relates to RS4; 11 with G101V mutation. The assay can be described thus: In vitro anti-proliferation assay (ATPlite luminescence) in BCL-2-dependent ALL cell line RS4;11 with G101V mutation. Particulars: Homo sapiens, RS4-11, 72 h; read-out: RS411-G101V IC50. Format: cell-based. An outline of the steps: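 RS4;11 G101V cells at about 1×10^4 per well were exposed to a range of compound concentrations for about 72 h in medium with 10% FBS. Cellular ATP was measured by ATPlite luminescence after lysis, and IC50 was derived from the dose-response.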
Regarding `CC(C)Oc1ccccc1[C@@H]1CN(C2CCOCC2)CCN1C1CC2(CCN(c3ccc(C(=O)NS(=O)(=O)c4cc5c(c([N+](=O)[O-])c4)N[C@H](C4CCOCC4)CO5)c(N4c5cc6cc[nH]c6nc5O[C@H]5COCC[C@@H]54)c3)CC2)C1` [Example 182, 4-(2-((R)-2-(2-isopropoxyphenyl)-4-(tetrahydro-2H-pyran-4-yl)piperazin-1-yl)-7-azaspiro[3.5]nonan-7-yl)-N-(((R)-5-nitro-3-(tetrahydro-2H-pyran-4-yl)-3,4-dihydro-2H-benzo[b][1,4]oxazin-7-yl)sulfonyl)-2-((5aS,9aR)-6,7,9,9a-tetrahydro-1H-pyrano[3,4-b]pyrrolo[3′,2′:5,6]pyrido[3,2-e][1,4]oxazin-5(5aH)-yl)benzamide], the IC50 is 0.0581 µM.
On to `Cc1ccccc1[C@@H]1CN(C2CCOCC2)CCN1C1CC2(CCN(c3ccc(C(=O)NS(=O)(=O)c4cc5c(c([N+](=O)[O-])c4)N[C@H](C4CCOCC4)CO5)c(N4c5cc6cc[nH]c6nc5O[C@H]5COCC[C@@H]54)c3)CC2)C1` [Example 183, N—(((R)-5-nitro-3-(tetrahydro-2H-pyran-4-yl)-3,4-dihydro-2H-benzo[b][1,4]oxazin-7-yl)sulfonyl)-2-((5aS,9aR)-6,7,9,9a-tetrahydro-1H-pyrano[3,4-b]pyrrolo[3′,2′:5,6]pyrido[3,2-e][1,4]oxazin-5(5aH)-yl)-4-(2-((R)-4-(tetrahydro-2H-pyran-4-yl)-2-(o-tolyl)piperazin-1-yl)-7-azaspiro[3.5]nonan-7-yl)benzamide], for which the IC50 amounted to 0.0733 µM.
The same measure, in the same setting: the value for `COc1cc(CN2CCN(C3CC4(CCN(c5ccc(C(=O)NS(=O)(=O)c6cc7c(c([N+](=O)[O-])c6)N[C@H](C6CCOCC6)CO7)c(N6c7cc8cc[nH]c8nc7O[C@H]7COCC[C@@H]76)c5)CC4)C3)[C@H](c3ccccc3OC(C)C)C2)cnc1OC` [Example 177, 4-(2-((R)-4-((5,6-dimethoxypyridin-3-yl)methyl)-2-(2-isopropoxyphenyl)piperazin-1-yl)-7-azaspiro[3.5]nonan-7-yl)-N-(((R)-5-nitro-3-(tetrahydro-2H-pyran-4-yl)-3,4-dihydro-2H-benzo[b][1,4]oxazin-7-yl)sulfonyl)-2-((5aS,9aR)-6,7,9,9a-tetrahydro-1H-pyrano[3,4-b]pyrrolo[3′,2′:5,6]pyrido[3,2-e][1,4]oxazin-5(5aH)-yl)benzamide] was 0.004 µM; that for `CC(C)Oc1ccccc1[C@@H]1CN([C@@H]2COCc3cc(F)c(F)cc32)CCN1C1CC2(CCN(c3ccc(C(=O)NS(=O)(=O)c4cc5c(c([N+](=O)[O-])c4)N[C@H](C4CCOCC4)CO5)c(N4c5cc6cc[nH]c6nc5O[C@H]5COCC[C@@H]54)c3)CC2)C1` [Example 217, 4-(2-((R)-4-((S)-6,7-difluoroisochroman-4-yl)-2-(2-isopropoxyphenyl)piperazin-1-yl)-7-azaspiro[3.5]nonan-7-yl)-N-(((R)-5-nitro-3-(tetrahydro-2H-pyran-4-yl)-3,4-dihydro-2H-benzo[b][1,4]oxazin-7-yl)sulfonyl)-2-((5aS,9aR)-6,7,9,9a-tetrahydro-1H-pyrano[3,4-b]pyrrolo[3′,2′:5,6]pyrido[3,2-e][1,4]oxazin-5(5aH)-yl)benzamide] was 0.0949 µM; that for `Cc1ccccc1[C@@H]1CN(Cc2cnc(N3CCOC[C@@H]3C)c3c2C(C)(C)CCO3)CCN1C1CC2(CCN(c3ccc(C(=O)NS(=O)(=O)c4cc5c(c([N+](=O)[O-])c4)N[C@H](C4CCOCC4)CO5)c(N4c5cc6cc[nH]c6nc5O[C@H]5COCC[C@@H]54)c3)CC2)C1` [Example 252, 4-(2-((R)-4-((4,4-dimethyl-8-((S)-3-methylmorpholino)-3,4-dihydro-2H-pyrano[2,3-c]pyridin-5-yl)methyl)-2-(o-tolyl)piperazin-1-yl)-7-azaspiro[3.5]nonan-7-yl)-N-(((R)-5-nitro-3-(tetrahydro-2H-pyran-4-yl)-3,4-dihydro-2H-benzo[b][1,4]oxazin-7-yl)sulfonyl)-2-((5aS,9aR)-6,7,9,9a-tetrahydro-1H-pyrano[3,4-b]pyrrolo[3′,2′:5,6]pyrido[3,2-e][1,4]oxazin-5(5aH)-yl)benzamide] was 0.00188 µM.

The same assay, now with this note: cellular anti-proliferative IC50, about 72 hours, medium with 10% FBS, ATPlite; read-out: RS411-G101V IC50.
`COc1c(CN2CCN(C3CC4(CCN(c5ccc(C(=O)NS(=O)(=O)c6ccc(NCC7CCC(C)(O)CC7)c([N+](=O)[O-])c6)c(N6c7cc8cc[nH]c8nc7O[C@H]7COCC[C@@H]76)c5)CC4)C3)[C@@H](c3ccccc3OC(C)C)C2)ccnc1N1CCOCC1` (stereo partly drawn) [Example 151, N-((4-((((1r,4r)-4-hydroxy-4-methylcyclohexyl)methyl)amino)-3-nitrophenyl)sulfonyl)-4-(2-((S)-2-(2-isopropoxyphenyl)-4-((3-methoxy-2-morpholinopyridin-4-yl)methyl)piperazin-1-yl)-7-azaspiro[3.5]nonan-7-yl)-2-((5aS,9aR)-6,7,9,9a-tetrahydro-1H-pyrano[3,4-b]pyrrolo[3′,2′:5,6]pyrido[3,2-e][1,4]oxazin-5(5aH)-yl)benzamide]: the 50% inhibitory concentration (IC50) is 0.0198 µM.
Still for that read-out and setting: under `COc1nc(CN2CCN(C3CC4(CCN(c5ccc(C(=O)NS(=O)(=O)c6ccc(NCC7CCC(C)(O)CC7)c([N+](=O)[O-])c6)c(N6c7cc8cc[nH]c8nc7O[C@H]7COCC[C@@H]76)c5)CC4)C3)[C@@H](c3ccccc3OC(C)C)C2)cc2c1OCCC2(C)C` (stereo partly drawn) [Example 110, 2-[(3R,8S)-2,5-dioxa-9,15,17-triazatetracyclo[8.7.0.0^{3,8}.0^{12,16}]heptadeca-1(10),11,13,16-tetraen-9-yl]-4-{2-[(2S)-2-(2-isopropoxyphenyl)-4-({8-methoxy-4,4-dimethyl-2H,3H-pyrano[2,3-c]pyridin-6-yl}methyl)piperazin-1-yl]-7-azaspiro[3.5]nonan-7-yl}-N-[3-nitro-4-({[(1r,4r)-4-hydroxy-4-methylcyclohexyl]methyl}amino)benzenesulfonyl]benzamide hydrochloride] stands 0.0238 µM.
In the case of `COc1c(N2CCOCC2)ncc2c1COC[C@H]2N1CCN(C2CC3(CCN(c4ccc(C(=O)NS(=O)(=O)c5cc6c(c([N+](=O)[O-])c5)N[C@H](C5CCOCC5)CO6)c(N5c6cc7cc[nH]c7nc6O[C@H]6COCC[C@@H]65)c4)CC3)C2)[C@H](c2ccccc2OC(C)C)C1` [Example 250, 2-[(3R,8S)-2,5-dioxa-9,15,17-triazatetracyclo[8.7.0.0^{3,8}.0^{12,16}]heptadeca-1(10),11,13,16-tetraen-9-yl]-4-{2-[(2R)-2-(2-isopropoxyphenyl)-4-[(4S)-8-methoxy-7-(morpholin-4-yl)-1H,3H,4H-pyrano[4,3-c]pyridin-4-yl]piperazin-1-yl]-7-azaspiro[3.5]nonan-7-yl}-N-[(3R)-5-nitro-3-(oxan-4-yl)-3,4-dihydro-2H-1,4-benzoxazin-7-ylsulfonyl]benzamide], the concentration for half-maximal inhibition (IC50) was found to be 0.0101 µM.
On the same count and under the same terms, the value for `CC(C)Oc1ccccc1[C@@H]1CN(Cc2ccc(F)c(F)c2)CCN1C1CC2(CCN(c3ncc(C(=O)NS(=O)(=O)c4cc5c(c([N+](=O)[O-])c4)N[C@H](C4CCOCC4)CO5)c(N4c5cc6cc[nH]c6nc5O[C@H]5COCC[C@@H]54)c3F)CC2)C1` [Example 228, 6-{2-[(2R)-4-[(3,4-difluorophenyl)methyl]-2-(2-isopropoxyphenyl)piperazin-1-yl]-7-azaspiro[3.5]nonan-7-yl}-4-[(3R,8S)-2,5-dioxa-9,15,17-triazatetracyclo[8.7.0.0^{3,8}.0^{12,16}]heptadeca-1(10),11,13,16-tetraen-9-yl]-5-fluoro-N-[(3R)-5-nitro-3-(oxan-4-yl)-3,4-dihydro-2H-1,4-benzoxazin-7-ylsulfonyl]pyridine-3-carboxamide] was 0.202 µM; that for `Cc1ccccc1[C@@H]1CN(C2CCC(C)(O)CC2)CCN1C1CC2(CCN(c3ccc(C(=O)NS(=O)(=O)c4ccc(NCC5CCC(C)(O)CC5)c([N+](=O)[O-])c4)c(N4c5cc6cc[nH]c6nc5O[C@H]5COCC[C@@H]54)c3)CC2)C1` (stereo partly drawn) [Example 112, 2-[(3R,8S)-2,5-dioxa-9,15,17-triazatetracyclo[8.7.0.0^{3,8}.0^{12,16}]heptadeca-1(10),11,13,16-tetraen-9-yl]-4-{2-[(2R)-2-(2-methylphenyl)-4-[(1r,4r)-4-hydroxy-4-methylcyclohexyl]piperazin-1-yl]-7-azaspiro[3.5]nonan-7-yl}-N-[3-nitro-4-({[(1r,4r)-4-hydroxy-4-methylcyclohexyl]methyl}amino)benzenesulfonyl]benzamide] was 0.0109 µM; that for `CC(C)c1ccccc1[C@@H]1CN(Cc2ccc(F)c(F)c2)CCN1C1CC2(CCN(c3ccc(C(=O)NS(=O)(=O)c4cc5c(c([N+](=O)[O-])c4)N[C@H](C4CCOCC4)CO5)c(N4c5cc6cc[nH]c6nc5O[C@H]5COCC[C@@H]54)c3)CC2)C1` [Example 180, 4-{2-[(2R)-4-[(3,4-difluorophenyl)methyl]-2-(2-isopropylphenyl)piperazin-1-yl]-7-azaspiro[3.5]nonan-7-yl}-2-[(3R,8S)-2,5-dioxa-9,15,17-triazatetracyclo[8.7.0.0^{3,8}.0^{12,16}]heptadeca-1(10),11,13,16-tetraen-9-yl]-N-[(3R)-5-nitro-3-(oxan-4-yl)-3,4-dihydro-2H-1,4-benzoxazin-7-ylsulfonyl]benzamide] was 0.0075 µM.
As for `CC(C)Oc1ccccc1[C@@H]1CN(Cc2ccc(C#N)nc2)CCN1C1CC2(CCN(c3ccc(C(=O)NS(=O)(=O)c4cc5c(c([N+](=O)[O-])c4)N[C@H](C4CCOCC4)CO5)c(N4c5cc6cc[nH]c6nc5O[C@H]5COCC[C@@H]54)c3)CC2)C1` [Example 262, 4-{2-[(2R)-4-[(6-cyanopyridin-3-yl)methyl]-2-(2-isopropoxyphenyl)piperazin-1-yl]-7-azaspiro[3.5]nonan-7-yl}-2-[(3R,8S)-2,5-dioxa-9,15,17-triazatetracyclo[8.7.0.0^{3,8}.0^{12,16}]heptadeca-1(10),11,13,16-tetraen-9-yl]-N-[(3R)-5-nitro-3-(oxan-4-yl)-3,4-dihydro-2H-1,4-benzoxazin-7-ylsulfonyl]benzamide], the IC50 turned out to be 0.00643 µM.
